From the NIST ThermoML archive (doi:10.1007/s10765-009-0625-z)
± gives the expanded uncertainty stated by the source.

Legend:
[1] = xn = mol fraction of the nth substance listed; conditions: Liquid
[2] = Liquid, Constant-volume piezometry

c1ccc2[nH]ccc2c1 [1H-indole] + c1ccc(-c2ccccc2)cc1
specific volume [m3/kg], [1], 100 kPa
Conditions	303.15 K	313.15 K	323.15 K	333.15 K	343.15 K	353.15 K	363.15 K
x1 = 0.25	–	–	0.0009769 ± 8e-07	0.0009848 ± 9e-07	0.0009924 ± 1e-06	0.001 ± 1.1e-06	0.001009 ± 1.2e-06
x1 = 0.5	0.0009477 ± 6e-07	0.000955 ± 7e-07	0.0009624 ± 8e-07	0.0009698 ± 9e-07	0.000977 ± 1e-06	0.0009848 ± 1e-06	0.0009924 ± 1.1e-06
x1 = 0.75	0.0009328 ± 6e-07	0.0009393 ± 7e-07	0.0009462 ± 7e-07	0.0009538 ± 8e-07	0.0009599 ± 9e-07	0.0009675 ± 1e-06	0.0009747 ± 1.1e-06
x1 = 1	–	–	0.0009295 ± 7e-07	0.000936 ± 8e-07	0.0009428 ± 9e-07	0.0009499 ± 1e-06	–

specific volume [m3/kg], [1], 333.15 K, Constant-volume piezometry
Conditions	x1 = 0.25	x1 = 0.5	x1 = 0.75	x1 = 1
100 kPa	0.0009848 ± 3e-07	0.0009698 ± 3e-07	0.0009538 ± 3e-07	0.000936 ± 3e-07
10000 kPa	0.0009792 ± 3e-07	0.0009648 ± 3e-07	0.0009488 ± 3e-07	0.0009315 ± 3e-07
20000 kPa	0.0009737 ± 3e-07	0.0009601 ± 3e-07	0.0009442 ± 3e-07	0.0009273 ± 3e-07
30000 kPa	–	0.0009553 ± 4e-07	0.0009399 ± 4e-07	0.0009228 ± 4e-07
40000 kPa	–	0.0009507 ± 4e-07	0.0009356 ± 4e-07	0.0009192 ± 4e-07
50000 kPa	–	0.0009464 ± 5e-07	0.0009316 ± 5e-07	0.0009157 ± 5e-07
60000 kPa	–	0.0009423 ± 6e-07	0.0009278 ± 5e-07	–
70000 kPa	–	0.0009384 ± 6e-07	0.0009241 ± 6e-07	–
80000 kPa	–	0.0009347 ± 7e-07	0.0009205 ± 7e-07	–
90000 kPa	–	–	0.0009171 ± 8e-07	–
100000 kPa	–	–	0.0009139 ± 8e-07	–
110000 kPa	–	–	0.0009108 ± 9e-07	–
120000 kPa	–	–	0.0009077 ± 1e-06	–
130000 kPa	–	–	0.0009047 ± 1e-06	–
140000 kPa	–	–	0.000902 ± 1.1e-06	–
150000 kPa	–	–	0.0008991 ± 1.2e-06	–
160000 kPa	–	–	0.0008965 ± 1.2e-06	–
170000 kPa	–	–	0.0008939 ± 1.3e-06	–

c1ccc(-c2ccccc2)cc1 [biphenyl]
[2]
Conditions	specific volume [m3/kg]
333.15 K, 100 kPa	0.0009985 ± 2e-07
343.15 K, 100 kPa	0.001007 ± 3e-07
353.15 K, 100 kPa	0.001015 ± 3e-07
353.15 K, 10000 kPa	0.001008 ± 3e-07
353.15 K, 20000 kPa	0.001002 ± 4e-07
353.15 K, 30000 kPa	0.0009956 ± 4e-07
363.15 K, 100 kPa	0.001024 ± 3e-07
363.16 K, 100 kPa	0.001024 ± 3e-07
363.16 K, 10000 kPa	0.001016 ± 3e-07
363.16 K, 20000 kPa	0.00101 ± 4e-07
363.16 K, 30000 kPa	0.001003 ± 4e-07
363.16 K, 40000 kPa	0.000997 ± 5e-07
363.16 K, 50000 kPa	0.0009917 ± 5e-07
363.16 K, 60000 kPa	0.0009864 ± 6e-07
363.16 K, 70000 kPa	0.0009815 ± 7e-07

c1ccc2[nH]ccc2c1 [1H-indole]
specific volume [m3/kg], [2]
Conditions	323.15 K	333.15 K	343.15 K	353.15 K
100 kPa	0.0009295 ± 2e-07	0.000936 ± 3e-07	0.0009428 ± 3e-07	0.0009499 ± 3e-07
10000 kPa	–	0.0009315 ± 3e-07	0.0009381 ± 3e-07	0.0009449 ± 3e-07
20000 kPa	–	0.0009273 ± 3e-07	0.0009335 ± 3e-07	0.0009402 ± 3e-07
30000 kPa	–	0.0009228 ± 4e-07	0.0009292 ± 4e-07	0.0009358 ± 4e-07
40000 kPa	–	0.0009192 ± 4e-07	0.0009249 ± 4e-07	0.0009313 ± 4e-07
50000 kPa	–	0.0009157 ± 5e-07	0.0009209 ± 5e-07	0.0009273 ± 5e-07
60000 kPa	–	–	0.0009173 ± 6e-07	0.0009231 ± 6e-07
70000 kPa	–	–	0.000914 ± 6e-07	0.0009195 ± 6e-07
80000 kPa	–	–	0.0009103 ± 7e-07	0.0009158 ± 7e-07
90000 kPa	–	–	–	0.0009123 ± 8e-07
100000 kPa	–	–	–	0.0009091 ± 8e-07
110000 kPa	–	–	–	0.0009059 ± 9e-07

c1ccc(-c2ccccc2)cc1 [biphenyl] + c1ccc2[nH]ccc2c1
Conditions	specific volume [m3/kg]
[1], 333.15 K, 100 kPa, Constant-volume piezometry, x2 = 0	0.0009985 ± 2e-07

[1], 100 kPa, x2 = 0
Conditions	specific volume [m3/kg]
333.15 K	0.0009985 ± 9e-07
343.15 K	0.001007 ± 1e-06
353.15 K	0.001015 ± 1.1e-06
363.15 K	0.001024 ± 1.2e-06

Cc1ccc2ccccc2c1 [2-methylnaphthalene] + c1ccc2[nH]ccc2c1
[1], 100 kPa, x2 = 0
Conditions	specific volume [m3/kg]
303.15 K	0.001001 ± 9e-07
313.15 K	0.001009 ± 1.1e-06
323.15 K	0.001017 ± 1.2e-06
333.15 K	0.001025 ± 1.4e-06
343.15 K	0.001033 ± 1.5e-06
353.15 K	0.001041 ± 1.7e-06

[1], 333.15 K, Constant-volume piezometry, x2 = 0
Conditions	specific volume [m3/kg]
100 kPa	0.001025 ± 3e-07
10000 kPa	0.001018 ± 3e-07
20000 kPa	0.001012 ± 4e-07
30000 kPa	0.001007 ± 4e-07
40000 kPa	0.001001 ± 5e-07
50000 kPa	0.0009961 ± 5e-07
60000 kPa	0.0009915 ± 6e-07
70000 kPa	0.0009868 ± 7e-07
80000 kPa	0.0009826 ± 7e-07
90000 kPa	0.0009784 ± 8e-07
100000 kPa	0.0009749 ± 9e-07

c1ccccc1 [benzene]
Conditions	specific volume [m3/kg]
[2], 293.15 K, 101.33 kPa	0.001138 ± 2e-07

Cc1ccc2ccccc2c1 [2-methylnaphthalene]
[2]
Conditions	specific volume [m3/kg]
303.15 K, 100 kPa	0.001001 ± 9e-07
313.15 K, 100 kPa	0.001009 ± 2e-07
323.15 K, 100 kPa	0.001017 ± 1.2e-06
333.14 K, 100 kPa	0.001025 ± 3e-07
333.15 K, 100 kPa	0.001025 ± 3e-07
333.15 K, 10000 kPa	0.001018 ± 3e-07
333.15 K, 20000 kPa	0.001012 ± 4e-07
333.15 K, 30000 kPa	0.001007 ± 4e-07
333.15 K, 40000 kPa	0.001001 ± 5e-07
333.15 K, 50000 kPa	0.0009961 ± 5e-07
333.15 K, 60000 kPa	0.0009915 ± 6e-07
333.15 K, 70000 kPa	0.0009868 ± 7e-07
333.15 K, 80000 kPa	0.0009826 ± 7e-07
333.15 K, 90000 kPa	0.0009784 ± 8e-07
333.15 K, 100000 kPa	0.0009749 ± 9e-07
343.15 K, 100 kPa	0.001033 ± 3e-07
343.15 K, 10000 kPa	0.001026 ± 3e-07
343.15 K, 20000 kPa	0.00102 ± 3e-07
343.15 K, 30000 kPa	0.001014 ± 4e-07
343.15 K, 40000 kPa	0.001008 ± 5e-07
343.15 K, 50000 kPa	0.001003 ± 5e-07
343.15 K, 60000 kPa	0.0009977 ± 6e-07
343.15 K, 70000 kPa	0.0009932 ± 7e-07
343.15 K, 80000 kPa	0.0009885 ± 8e-07
343.15 K, 90000 kPa	0.0009843 ± 8e-07
343.15 K, 100000 kPa	0.0009802 ± 9e-07
343.15 K, 110000 kPa	0.0009764 ± 1e-06
343.15 K, 120000 kPa	0.0009725 ± 1e-06
343.15 K, 130000 kPa	0.0009689 ± 1.1e-06
343.15 K, 140000 kPa	0.0009655 ± 1.2e-06
353.15 K, 100 kPa	0.001041 ± 3e-07
